Biological target: T1, human PAR4 (Homo sapiens, UniProt Q96RI0)
T1 construct: expressed in transfected cells; host or cells: HEK293 PAR4 Clone 1.2A (BMS Arctic ID 383940)
T1 sequence (Q96RI0 18-385): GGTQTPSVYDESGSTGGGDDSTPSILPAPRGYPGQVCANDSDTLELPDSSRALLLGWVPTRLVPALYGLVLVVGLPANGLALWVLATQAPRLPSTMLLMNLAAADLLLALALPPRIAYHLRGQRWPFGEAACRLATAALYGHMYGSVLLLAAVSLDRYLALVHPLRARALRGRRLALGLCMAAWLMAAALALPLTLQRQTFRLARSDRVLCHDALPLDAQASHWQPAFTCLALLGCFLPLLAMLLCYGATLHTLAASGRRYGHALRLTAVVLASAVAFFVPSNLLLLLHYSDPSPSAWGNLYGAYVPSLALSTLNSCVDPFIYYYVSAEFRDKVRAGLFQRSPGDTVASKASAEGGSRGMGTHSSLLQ
Experiment: PAR4 FLIPR assay: antagonism of agonist-peptide-induced calcium mobilization in PAR4-expressing HEK293 cells
Format: cell-based
Conditions: H-Ala-Phe(4-F)-[…]NH2-induced intracellular calcium mobilization, 11-point curves

Cc1cc(-c2nc3c(Cl)cccc3s2)c2ncc(OC(F)F)nc2c1 [Example 8, 4-chloro-2-(2-(difluoromethoxy)-7-methylquinoxalin-5-yl)benzo[d]thiazole]
IC50: 8.1 nM

Cc1cc(-c2nc3ncccc3s2)c2ncc(OC(F)F)nc2c1 [Example 9, 2-(2-(difluoromethoxy)-7-methylquinoxalin-5-yl)thiazolo[4,5-b]pyridine]
IC50: 220 nM

COc1cc(C)c2nc(-c3cc(C)cc4nc(OC(F)F)cnc34)sc2c1 [Example 10, 2-(2-(difluoromethoxy)-7-methylquinoxalin-5-yl)-6-methoxy-4-methylbenzo[d]thiazole]
IC50: 2.2 nM

Cc1cc(-c2nc3c(s2)CN(C(=O)OC(C)(C)C)CC3)c2ncc(OC(F)F)nc2c1 [Example 11, tert-butyl 2-(2-(difluoromethoxy)-7-methylquinoxalin-5-yl)-6,7-dihydrothiazolo[5,4-c]pyridine-5(4H)-carboxylate]
IC50: 1700 nM

COc1ccc(C)c2nc(-c3cc(C)cc4nc(OC(F)F)cnc34)sc12 [Example 12, 2-(2-(difluoromethoxy)-7-methylquinoxalin-5-yl)-7-methoxy-4-methylbenzo[d]thiazole]
IC50: 2 nM

COc1c(F)cc(F)c2nc(-c3cc(C)cc4nc(OC(F)F)cnc34)sc12 [Example 13, 2-(2-(difluoromethoxy)-7-methylquinoxalin-5-yl)-4,6-difluoro-7-methoxybenzo[d]thiazole]
IC50: 3.5 nM

Cc1cc(-c2nc3cccc(NC(=O)OC(C)(C)C)c3s2)c2ncc(OC(F)F)nc2c1 [Example 14, tert-butyl (2-(2-(difluoromethoxy)-7-methylquinoxalin-5-yl)benzo[d]thiazol-7-yl) carbamate]
IC50: 6.8 nM

Cc1cc(-c2nc3cccc(OCc4cscn4)c3s2)c2ncc(OC(F)F)nc2c1 [Example 15, 2-(2-(difluoromethoxy)-7-methylquinoxalin-5-yl)-7-(thiazol-4-ylmethoxy)benzo[d]thiazole]
IC50: 38 nM

Cc1cc(-c2nc3ccc(OCCNC(=O)OC4CCOC4)cc3s2)c2ncc(OC(F)F)nc2c1 (centres unmarked) [Example 16, tetrahydrofuran-3-yl (2-((2-(2-(difluoromethoxy)-7-methylquinoxalin-5-yl)benzo[d]thiazol-6-yl)oxy)ethyl)carbamate]
IC50: 80 nM

Cc1cc(-c2nc3cccc(OCCOc4ccccc4)c3s2)c2ncc(OC(F)F)nc2c1 [Example 17, 2-(2-(difluoromethoxy)-7-methylquinoxalin-5-yl)-7-(2-phenoxyethoxy)benzo[d]thiazole]
IC50: 13 nM

Cc1cc(-c2nc3cccc(OCCOCc4ccccc4)c3s2)c2ncc(OC(F)F)nc2c1 [Example 18, 7-(2-(benzyloxy)ethoxy)-2-(2-(difluoromethoxy)-7-methylquinoxalin-5-yl) benzo[d]thiazole]
IC50: 98 nM

Cc1cc(-c2nc3ccc(OCCNC(=O)OCC4CCCO4)cc3s2)c2ncc(OC(F)F)nc2c1 (centres unmarked) [Example 19, (Tetrahydrofuran-2-yl)methyl (2-((2-(2-(difluoromethoxy)-7-methylquinoxalin-5-yl)benzo[d]thiazol-6-yl)oxy)ethyl)carbamate]
IC50: 41 nM

Cc1cc(-c2nc3ccc(OCCNC(=O)OC4CCOCC4)cc3s2)c2ncc(OC(F)F)nc2c1 [Example 20, tetrahydro-2H-pyran-4-yl (2-((2-(2-(difluoromethoxy)-7-methylquinoxalin-5-yl)benzo[d]thiazol-6-yl)oxy)ethyl)carbamate]
IC50: 30 nM

Cc1cc(-c2nc3cccc(NC(=O)OC4CCOCC4)c3s2)c2ncc(OC(F)F)nc2c1 [Example 21, tetrahydro-2H-pyran-4-yl (2-(2-(difluoromethoxy)-7-methylquinoxalin-5-yl)benzo[d]thiazol-7-yl)carbamate]
IC50: 3.3 nM

Cc1cc(-c2nc3cccc(NC(=O)OCC4CCCO4)c3s2)c2ncc(OC(F)F)nc2c1 (centres unmarked) [Example 22, (Tetrahydrofuran-2-yl)methyl (2-(2-(difluoromethoxy)-7-methylquinoxalin-5-yl)benzo[d]thiazol-7-yl)carbamate]
IC50: 1.8 nM

COc1ccc2nc(-c3cc(C)cc4nc(OC(F)F)cnc34)sc2n1 [Example 23, 2-(2-(difluoromethoxy)-7-methylquinoxalin-5-yl)-5-methoxythiazolo[5,4-b]pyridine]
IC50: 5.3 nM

COc1cncc2nc(-c3cc(C)cc4nc(OC(F)F)cnc34)sc12 [Example 24, 2-(2-(difluoromethoxy)-7-methylquinoxalin-5-yl)-7-methoxythiazolo[4,5-c]pyridine]
IC50: 2 nM

Cc1cc(-c2cc3c(o2)CCCC3NC(=O)OC(C)(C)C)c2ncc(OC(F)F)nc2c1 (centres unmarked) [Example 25, tert-butyl (2-(2-(difluoromethoxy)-7-methylquinoxalin-5-yl)-4,5,6,7-tetrahydrobenzofuran-4-yl)carbamate]
IC50: 130 nM

COc1cnc2c(-c3nc4c(C)cc(OCCNS(=O)(=O)c5ccc(F)cc5)cc4s3)cc(C)cc2n1 [Example 26, 4-fluoro-N-(2-((2-(2-methoxy-7-methylquinoxalin-5-yl)-4-methylbenzo[d]thiazol-6-yl)oxy)ethyl)benzenesulfonamide]
IC50: 3.3 nM

COc1cnc2c(-c3nc4c(Cl)cc(OCCNS(=O)(=O)c5ccccc5)cc4s3)cc(C)cc2n1 [Example 27, N-(2-((4-chloro-2-(2-methoxy-7-methylquinoxalin-5-yl)benzo[d]thiazol-6-yl)oxy)ethyl)benzenesulfonamide]
IC50: 5.4 nM

COc1cnc2c(-c3nc4c(Cl)cc(OCCNS(=O)(=O)c5ccc(F)cc5)cc4s3)cc(C)cc2n1 [Example 28, N-(2-((4-chloro-2-(2-methoxy-7-methylquinoxalin-5-yl)benzo[d]thiazol-6-yl)oxy)ethyl)-4-fluorobenzenesulfonamide]
IC50: 3 nM

COCc1cnc2c(-c3nc4c(C)cc(OCCNS(=O)(=O)c5ccc(F)cc5)cc4s3)cc(C)cc2n1 [Example 29, 4-fluoro-N-(2-((2-(2-(methoxymethyl)-7-methylquinoxalin-5-yl)-4-methylbenzo[d]thiazol-6-yl)oxy)ethyl)benzenesulfonamide]
IC50: 1.4 nM

CCOc1cnc2c(-c3nc4c(C)cc(OCCNS(=O)(=O)c5ccc(F)cc5)cc4s3)cc(C)cc2n1 [Example 30, N-(2-((2-(2-ethoxy-7-methylquinoxalin-5-yl)-4-methylbenzo[d]thiazol-6-yl)oxy)ethyl)-4-fluorobenzenesulfonamide]
IC50: 4.7 nM

CCc1cnc2c(-c3nc4c(C)cc(OCCNS(=O)(=O)c5ccc(F)cc5)cc4s3)cc(C)cc2n1 [Example 31, N-(2-((2-(2-ethyl-7-methylquinoxalin-5-yl)-4-methylbenzo[d]thiazol-6-yl)oxy)ethyl)-4-fluorobenzenesulfonamide]
IC50: 240 nM

COC(=O)c1cnc2c(-c3nc4c(C)cc(OCCNS(=O)(=O)c5ccc(F)cc5)cc4s3)cc(C)cc2n1 [Example 32, methyl 5-(6-(2-(4-fluorophenylsulfonamido)ethoxy)-4-methylbenzo[d]thiazol-2-yl)-7-methylquinoxaline-2-carboxylate]
IC50: 3 nM

Cc1cc(-c2nc3c(C)cc(OCCNS(=O)(=O)c4ccc(F)cc4)cc3s2)c2ncc(OC3CC3)nc2c1 [Example 33, N-(2-((2-(2-cyclopropoxy-7-methylquinoxalin-5-yl)-4-methylbenzo[d]thiazol-6-yl)oxy)ethyl)-4-fluorobenzenesulfonamide]
IC50: 120 nM

From patent publication US12060347B2 (BRISTOL-MYERS SQUIBB COMPANY, priority 2016, dated 2024)
